Experimental findings from ChEMBL document CHEMBL1141107, “A novel series of non-carboxylic acid, non-hydantoin inhibitors of aldose reductase with potent oral activity in diabetic rat models: 6-(5-chloro-3-methylbenzofuran-2-sulfonyl)-2H-pyridazin-3-one and congeners” (J Med Chem, 2005) are described below.

Molecules are shown by their SMILES.

Assay [1] concerns Rattus norvegicus. In words: Inhibition of fructose accumulation in diabetic rat after oral gavage administration, pH 4.5 by chronic test dosed at 10 mg/kg. Format: functional.
Assay [2] relates to Rattus norvegicus. Description: Inhibition of fructose accumulation in diabetic rat after oral gavage administration incubated at RT for 60 minutes in pH 4.5 by acute test dosed at 20 mg/kg. The following applies: 1 h. Format: functional.
Assay [3] relates to Rattus norvegicus. In words: Inhibition of sorbitol accumulation in diabetic rat by acute test dosed at 10 mg/kg. Type of assay: functional.
The test system of assay [4] is Rattus norvegicus. In words: Inhibition of fructose accumulation in diabetic rat after oral gavage administration, pH 4.5 by chronic test dosed at 20 mg/kg. Format: functional.
The test system of assay [5] is Rattus norvegicus. Description: Inhibition of sorbitol accumulation in diabetic rat by acute test dosed at 20 mg/kg. Format: functional.
Assay [6] relates to Rattus norvegicus. Description: Inhibition of fructose accumulation in diabetic rat after oral gavage administration incubated at RT for 60 minutes in pH 4.5 by acute test dosed at 10 mg/kg. Type of assay: functional. The following applies: 1 h.
The target of assay [7] is Aldo-keto reductase family 1 member B1 (Homo sapiens, UniProt P15121). Description: In vitro inhibitroy concentration against Aldose reductase incubated at 24 degree C for 15 minutes in pH 7.0.
For assay [8], the system named is Rattus norvegicus. In words: Inhibition of sorbitol accumulation in diabetic rat by chronic test dosed at 10 mg/kg. Type of assay: functional.
The subject of assay [9] is Rattus norvegicus. In words: Inhibition of sorbitol accumulation in diabetic rat by chronic test dosed at 20 mg/kg. Format: functional.
The subject of assay [10] is Rattus norvegicus. Description: Inhibition of sorbitol accumulation in diabetic rat by acute test dosed at 5 mg/kg. Format: functional.
Assay [11] deals with Rattus norvegicus. In words: Inhibition of sorbitol accumulation in diabetic rat by chronic test dosed at 5 mg/kg. Format: functional.

Take `O=c1ccc(S(=O)(=O)c2cccc3ccccc23)n[nH]1`: the inhibition in vivo at 10 mg/kg in the assay with Rattus norvegicus [1] came out at 31%; in the assay with Rattus norvegicus [3] it was 88%; with Rattus norvegicus [6], 49%; with Rattus norvegicus [8], 60%. The inhibition in vivo at 20 mg/kg amounted to 55% with Rattus norvegicus [2], 43% with Rattus norvegicus [4], 95% in the assay with Rattus norvegicus [5] and 70% with Rattus norvegicus [9]. Moreover, the IC50 in [7] worked out at 150 nM.

Consider `O=c1ccc(S(=O)(=O)c2cccc(C(F)(F)F)c2)n[nH]1`, for which the inhibition in vivo at 20 mg/kg in the assay on Rattus norvegicus [2] amounted to 17%; with Rattus norvegicus [5] it was 45%. Also, the IC50 in assay [7] was found to be 175 nM.

In [7], `O=S(=O)(Cc1ccccc1C(F)(F)F)c1ccc(O)nn1` gave an IC50 of 500 nM.

As for `O=c1ccc(S(=O)(=O)Cc2ccc(Br)cc2F)n[nH]1`, the IC50 in assay [7] was 667 nM.

Consider `O=c1ccc(S(=O)(=O)c2cc3cccc(Cl)c3[nH]2)n[nH]1`, for which the inhibition in vivo at 20 mg/kg with Rattus norvegicus [2] was found to be 44%; in the assay with Rattus norvegicus [5], 40%. In assay [7], the IC50 stood at 450 nM.

With `O=c1ccc(S(=O)(=O)Cc2cccc(Cl)c2Cl)n[nH]1`, the inhibition in vivo at 20 mg/kg with Rattus norvegicus [2] worked out at 48%; in the assay with Rattus norvegicus [5] it was 65%. In assay [7], this compound came in with an IC50 of 35 nM.

As to `O=S(=O)(Cc1cccc(F)c1F)c1ccc(O)nn1`, the inhibition in vivo at 20 mg/kg in the assay with Rattus norvegicus [2] was found to be 51%; in the assay with Rattus norvegicus [5], 82%. Besides, in assay [7], the IC50 is 257 nM.

In the assay with Rattus norvegicus [2], `Cc1ccc2sc(S(=O)(=O)c3ccc(O)nn3)cc2c1` displayed an inhibition in vivo at 20 mg/kg of 7%. In [7], this compound gave an IC50 of 160 nM.

Consider `O=c1ccc(S(=O)(=O)c2oc3ccccc3c2-c2ccccc2)n[nH]1`, for which the IC50 in [7] came out at 23 nM.

In assay [7], `O=S(=O)(c1cccc(Cl)c1)c1ccc(O)nn1` had an IC50 of 240 nM.

On to `O=S(=O)(c1ccc(Cl)c(Cl)c1)c1ccc(O)nn1`, for which the values for the inhibition in vivo at 20 mg/kg with Rattus norvegicus [2] and in the assay with Rattus norvegicus [5] were 85% and 98%, respectively. Further, the figures for the inhibition in vivo at 10 mg/kg in the assay on Rattus norvegicus [3] and in the assay on Rattus norvegicus [6] were 84% and 60%, respectively.

Regarding `O=c1ccc(S(=O)(=O)c2ccccc2F)n[nH]1`, the inhibition in vivo at 20 mg/kg in the assay on Rattus norvegicus [2] is 56%; with Rattus norvegicus [5], 91%. The inhibition in vivo at 10 mg/kg with Rattus norvegicus [3] was 79%; with Rattus norvegicus [6], 34%. The compound further came in with an IC50 in assay [7] of 540 nM.

Consider `Cc1ccc2oc(S(=O)(=O)c3ccc(O)nn3)c(C)c2c1`, for which the figures for the inhibition in vivo at 10 mg/kg in the assay with Rattus norvegicus [3] and with Rattus norvegicus [6] were 21% and 18%, respectively. For the same compound, in assay [7], the IC50 came to 13 nM.

As to `O=S(=O)(Cc1cccc(Cl)c1F)c1ccc(O)nn1`, the inhibition in vivo at 20 mg/kg in the assay on Rattus norvegicus [2] came out at 64%; in the assay on Rattus norvegicus [5], 74%. In assay [7], the IC50 came to 54 nM.

`Cc1c(S(=O)(=O)c2ccc(O)nn2)oc2ccccc12` had an inhibition in vivo at 20 mg/kg in the assay with Rattus norvegicus [2] of 56%. Testing at 10 mg/kg with Rattus norvegicus [6] gave an inhibition in vivo of 43%. Further, the IC50 in [7] amounted to 140 nM.

In the case of `O=c1ccc(S(=O)(=O)c2cc3cc4c(cc3[nH]2)OCO4)n[nH]1`, the IC50 in assay [7] worked out at 3800 nM. In other words, the single-digit micromolar range.

The compound `O=c1ccc(S(=O)(=O)c2cccc(Cl)c2Cl)n[nH]1` returned an inhibition in vivo at 10 mg/kg with Rattus norvegicus [3] of 77%. Also, the inhibition in vivo at 5 mg/kg was 55% in the assay with Rattus norvegicus [10] and 81% in the assay with Rattus norvegicus [11]. For the same compound, the inhibition in vivo at 20 mg/kg in the assay on Rattus norvegicus [5] turned out to be 98%; in the assay with Rattus norvegicus [9], 89%. The same compound gave an IC50 in [7] of 55 nM.

`O=S(=O)(Cc1ccccc1F)c1ccc(O)nn1` displayed an IC50 in assay [7] of 422 nM. That is a sub-micromolar value.

Turning to `Cc1c(S(=O)(=O)c2ccc(O)nn2)oc2cc(Cl)ccc12`, the inhibition in vivo at 10 mg/kg in the assay with Rattus norvegicus [3] amounted to 40%; in the assay on Rattus norvegicus [6] it was 28%. The compound further displayed an IC50 in assay [7] of 190 nM.

`O=c1ccc(S(=O)(=O)c2cc3ccc(F)cc3[nH]2)n[nH]1`: the IC50 in [7] was determined as 1400 nM. That is a single-digit micromolar value.

Consider `O=c1ccc(S(=O)(=O)c2cc3cc(Cl)cc(Cl)c3o2)n[nH]1`, for which the inhibition in vivo at 10 mg/kg in the assay with Rattus norvegicus [3] worked out at 32%; in the assay with Rattus norvegicus [6] it was 39%. Further, in assay [7], the midpoint of inhibition, the IC50, lay at 87 nM.

The compound `O=c1ccc(S(=O)(=O)c2cc3cc(Cl)ccc3o2)n[nH]1` returned an inhibition in vivo at 10 mg/kg in the assay on Rattus norvegicus [6] of 39%.

In turn, `O=c1ccc(S(=O)(=O)c2cc3cc(Cl)ccc3[nH]2)n[nH]1` displayed an IC50 in assay [7] of 1100 nM.

As for `COc1ccc2oc(S(=O)(=O)c3ccc(=O)[nH]n3)cc2c1`, the inhibition in vivo at 20 mg/kg in the assay with Rattus norvegicus [2] was 34%; with Rattus norvegicus [5], 49%. Besides, the IC50 in assay [7] amounted to 230 nM.

As a reminder, the inhibition in vivo is the relative decrease from the control value, in per cent. Lower therefore signals a weak effect. What is called IC50 is the midpoint of a concentration-inhibition curve. The low end stands for inhibition by little substance, the high end for a need for much substance.
